# In patent publication US9725449B2, “Tricyclic compounds as anticancer agents” (BRISTOL-MYERS SQUIBB COMPANY, priority 2015, dated 2017):
# Read-outs that look alike come from different tables or passages of the source.
# Target: BRD4 (Homo sapiens, UniProt O60885)
# Test: Time resolved fluorescence resonance energy transfer (TR-FRET) binding assay, bromodomain BRD4
# Settings: one of the FRET assays described
Compound,IC50 (read-out: FRET BRD4 IC50),IC50 (FRET BRD4 IC50 (nM))
"[2H]C([2H])([2H])c1nnn(C)c1-c1cnc2c3c(OCC)ncc(S(C)(=O)=O)c3n(C(c3ncccc3F)C3CCC(F)(F)CC3)c2c1 (stereo not drawn) [Example 75, 8-[(4,4-Difluorocyclohexyl)(3-fluoropyridin-2-yl)methyl]-13-ethoxy-10-methanesulfonyl-5-[4-(^2H3)methyl-1-methyl-1H-1,2,3-triazol-5-yl]-3,8,12-triazatricyclo[7.4.0.0^2,^7]trideca-1(13),2(7),3,5,9,11-hexaene]",< 1500 nM,
"COc1nnn(C)c1-c1cnc2c3ccc(-c4c(OC)nnn4C)nc3n([C@H](c3ccccc3)C3CCOCC3)c2c1 [Example 166, 5,11-Bis(4-methoxy-1-methyl-1H-1,2,3-triazol-5-yl)-8-[(S)-oxan-4-yl(phenyl)methyl]-3,8,10-triazatricyclo[7.4.0.0^2,^7]trideca-1(9),2(7),3,5,10,12-hexaene]",< 10 nM,
"[2H]C([2H])([2H])c1nnn(C)c1-c1cnc2c3ccc(NCCc4nnn[nH]4)nc3n([C@H](c3ccccc3)C3CCOCC3)c2c1 [Example 295, 5-[4-(^2H3)Methyl-1-methyl-1H-1,2,3-triazol-5-yl]-8-[(S)-oxan-4-yl(phenyl)methyl]-N-[2-(1H-1,2,3,4-tetrazol-5-yl)ethyl]-3,8,10-triazatricyclo[7.4.0.0^2,^7]trideca-1(9),2(7),3,5,10,12-hexaen-11-amine]",< 1 nM,
"[2H]C([2H])([2H])c1nnn(C)c1-c1cnc2c3cc(C(=O)OC)cnc3n([C@H](c3ccccc3)C3CCOCC3)c2c1 [Example 348, Methyl 5-[4-(^2H3)methyl-1-methyl-1H-1,2,3-triazol-5-yl]-8-[(S)-oxan-4-yl(phenyl)methyl]-3,8,10-triazatricyclo[7.4.0.0^2,^7]trideca-1(13),2(7),3,5,9,11-hexaene-12-carboxylate]",< 10 nM,
"[2H]C([2H])([2H])c1nnn(C)c1-c1cnc2c3ccc(N4C5CCCC4CC5)nc3n([C@H](c3ccccc3)C3CCOCC3)c2c1 [Example 184, 11-{8-Azabicyclo[3.2.1]octan-8-yl}-5-[4-(^2H3)methyl-1-methyl-1H-1,2,3-triazol-5-yl]-8-[(S)-oxan-4-yl(phenyl)methyl]-3,8,10-triazatricyclo[7.4.0.0^2,^7]trideca-1(9),2(7),3,5,10,12-hexaene]",,< 10 nM
"Cc1nnn(C)c1-c1cnc2c3ccc(Cl)nc3n([C@H](c3ccccc3F)C3CCOCC3)c2c1 [Example 226, 11-Chloro-5-(dimethyl-1H-1,2,3-triazol-5-yl)-8-[(S)-(2-fluorophenyl)(oxan-4-yl)methyl]-3,8,10-triazatricyclo[7.4.0.0^2,^7]trideca-1(13),2(7),3,5,9,11-hexaene]",< 10 nM,
"[2H]C([2H])([2H])c1nnn(C)c1-c1cnc2c3c(OCC)ncc(S(C)(=O)=O)c3n([C@H](c3ccccc3)C3CCOCC3)c2c1 [Example 56, 13-Ethoxy-10-methanesulfonyl-5-[4-(^2H3)methyl-1-methyl-1H-1,2,3-triazol-5-yl]-8-[(S)-oxan-4-yl(phenyl)methyl]-3,8,12-triazatricyclo[7.4.0.0^2,^7]trideca-1(13),2(7),3,5,9,11-hexaene]",< 1 nM,
"COC(=O)c1cnc(OC)c2c3ncc(-c4c(C)noc4C)cc3n([C@H](c3ccccc3)C3CCOCC3)c12 [Example 140, Methyl 5-(dimethyl-1,2-oxazol-4-yl)-13-methoxy-8-[(S)-oxan-4-yl(phenyl)methyl]-3,8,12-triazatricyclo[7.4.0.0^2,^7]trideca-1(13),2(7),3,5,9,11-hexaene-10-carboxylate]",< 1 nM,
"Cc1nnn(C)c1-c1cnc2c3c(Cl)ncc(Cl)c3n([C@H](c3ccccc3)C3CCOCC3)c2c1 [Example 36, 10,13-Dichloro-5-(dimethyl-1H-1,2,3-triazol-5-yl)-8-[(S)-oxan-4-yl(phenyl)methyl]-3,8,12-triazatricyclo[7.4.0.0^2,^7]trideca-1(13),2(7),3,5,9,11-hexaene]",< 10 nM,
"COc1ncc(S(C)(=O)=O)c2c1c1ncc(-c3c(C)nnn3C)cc1n2C(c1ccccc1)C1CCC(F)(F)CC1 (single isomer, unassigned) [Example 91, 8-[(4,4-Difluorocyclohexyl)(phenyl)methyl]-5-(dimethyl-1H-1,2,3-triazol-5-yl)-10-methanesulfonyl-13-methoxy-3,8,12-triazatricyclo[7.4.0.0^2,^7]trideca-1(13),2(7),3,5,9,11-hexaene]",< 1500 nM,
"[2H]C([2H])([2H])c1nnn(C)c1-c1cnc2c3cncc(S(C)(=O)=O)c3n([C@H](c3ccccc3)C3CCOCC3)c2c1 [Example 286, 10-Methanesulfonyl-5-[4-(^2H3)methyl-1-methyl-1H-1,2,3-triazol-5-yl]-8-[(S)-oxan-4-yl(phenyl)methyl]-3,8,12-triazatricyclo[7.4.0.0^2,^7]trideca-1(13),2(7),3,5,9,11-hexaene]",< 10 nM,
Cc1noc(C)c1-c1cnc2c3cnc(C(C)(C)O)cc3n([C@H](c3ncccc3F)C3CCOCC3)c2c1 [Example 338],< 10 nM,
"[2H]C([2H])([2H])c1nnn(C)c1-c1cnc2c3cnc(S(C)(=O)=O)cc3n([C@H](c3ccccc3)C3CCOCC3)c2c1 [Example 201, 11-Methanesulfonyl-5-[4-(^2H3)methyl-1-methyl-1H-1,2,3-triazol-5-yl]-8-[(S)-oxan-4-yl(phenyl)methyl]-3,8,12-triazatricyclo[7.4.0.0^2,^7]trideca-1(9),2(7),3,5,10,12-hexaene]",< 10 nM,
"[2H]C([2H])([2H])c1nnn(C)c1-c1cnc2c3c(OC)ncc(S(C)(=O)=O)c3n([C@H](c3ccccc3)C3CCOCC3)c2c1 [Example 47, 10-Methanesulfonyl-13-methoxy-5-[4-(^2H3)methyl-1-methyl-1H-1,2,3-triazol-5-yl]-8-[(S)-oxan-4-yl(phenyl)methyl]-3,8,12-triazatricyclo[7.4.0.0^2,^7]trideca-1(13),2(7),3,5,9,11-hexaene]",< 1 nM,
"[2H]C([2H])([2H])c1nnn(C)c1-c1cnc2c3c(OCC4CC4(F)F)nccc3n([C@H](c3ccccc3)C3CCOCC3)c2c1 (stereo partly drawn) [Example 279, 13-[(2,2-Difluorocyclopropyl)methoxy]-5-[4-(^2H3)methyl-1-methyl-1H-1,2,3-triazol-5-yl]-8-[(S)-oxan-4-yl(phenyl)methyl]-3,8,12-triazatricyclo[7.4.0.0^2,^7]trideca-1(9),2(7),3,5,10,12-hexaene]",< 1 nM,
"[2H]C([2H])([2H])c1nnn(C)c1-c1cnc2c3c(OC)ncc(S(C)(=O)=O)c3n(C(c3ccc(F)cc3)C3CCC(F)(F)CC3)c2c1 (stereo in doubt) [Example 96, 8-[(R)-(4,4-Difluorocyclohexyl)(4-fluorophenyl)methyl]-10-methanesulfonyl-13-methoxy-5-[4-(^2H3)methyl-1-methyl-1H-1,2,3-triazol-5-yl]-3,8,12-triazatricyclo[7.4.0.0^2,^7]trideca-1(13),2(7),3,5,9,11-hexaene]",< 1500 nM,
"COc1ccc2c3ncc(-c4c(C)nnn4C)cc3n(C(c3cccc(F)c3)C3CCOCC3)c2n1 (racemic) [Example 16, 5-(Dimethyl-1H-1,2,3-triazol-5-yl)-8-[(3-fluorophenyl)(oxan-4-yl)methyl]-11-methoxy-3,8,10-triazatricyclo[7.4.0.0^2,^7]trideca-1(13),2(7),3,5,9,11-hexaene]",< 10 nM,
[2H]C([2H])([2H])c1nnn(C)c1-c1cnc2c3cnc(Cl)cc3n([C@H](c3ccccc3F)C3CCOCC3)c2c1 [Example 315],< 10 nM,
"Cc1nnn(C)c1-c1cnc2c3ccc(N4CCN(C)CC4)nc3n([C@H](c3ccccc3F)C3CCOCC3)c2c1 [Example 231, 5-(Dimethyl-1H-1,2,3-triazol-5-yl)-8-[(S)-(2-fluorophenyl)(oxan-4-yl)methyl]-11-(4-methylpiperazin-1-yl)-3,8,10-triazatricyclo[7.4.0.0^2,^7]trideca-1(13),2(7),3,5,9,11-hexaene]",< 10 nM,
"[2H]C([2H])([2H])c1nnn(C)c1-c1cnc2c3c(N(C)CC)nccc3n([C@H](c3ccccc3)C3CCOCC3)c2c1 [Example 132, N-Ethyl-N-methyl-5-[4-(^2H3)methyl-1-methyl-1H-1,2,3-triazol-5-yl]-8-[(S)-oxan-4-yl(phenyl)methyl]-3,8,12-triazatricyclo[7.4.0.0^2,^7]trideca-1(13),2(7),3,5,9,11-hexaen-13-amine]",< 1 nM,
"[2H]C([2H])([2H])N1CCN(c2ccc3c4ncc(-c5c(C)nnn5C)cc4n([C@H](c4ccccc4F)C4CCOCC4)c3n2)CC1 [Example 250, 5-(Dimethyl-1H-1,2,3-triazol-5-yl)-8-[(S)-(2-fluorophenyl)(oxan-4-yl)methyl]-11-[4-(^2H3)methylpiperazin-1-yl]-3,8,10-triazatricyclo[7.4.0.0^2,^7]trideca-1(13),2(7),3,5,9,11-hexaene]",< 10 nM,
"[2H]C([2H])([2H])c1nnn(C)c1-c1cnc2c3ccc(N4CCS(=O)(=O)CC4)nc3n([C@H](c3ccccc3)C3CCOCC3)c2c1 [Example 185, 4-{5-[4-(^2H3)Methyl-1-methyl-1H-1,2,3-triazol-5-yl]-8-[(S)-oxan-4-yl(phenyl)methyl]-3,8,10-triazatricyclo[7.4.0.0^2,^7]trideca-1(9),2(7),3,5,10,12-hexaen-11-yl}-1λ^6,4-thiomorpholine-1,1-dione]",< 10 nM,
"Cc1nnn(C)c1-c1cnc2c3c(NS(=O)(=O)C4CC4)ncc(S(C)(=O)=O)c3n([C@H](c3ccccc3)C3CCOCC3)c2c1 [Example 97, N-[5-(Dimethyl-1H-1,2,3-triazol-5-yl)-10-methanesulfonyl-8-[(S)-oxan-4-yl(phenyl)methyl]-3,8,12-triazatricyclo[7.4.0.0^2,^7]trideca-1(13),2(7),3,5,9,11-hexaen-13-yl]cyclopropanesulfonamide]",< 1 nM,
"Cc1noc(C)c1-c1cnc2c3cc(C(C)(C)O)cnc3n([C@H](c3ccccc3)C3CCOCC3)c2c1 [Example 351, 2-[5-(Dimethyl-1,2-oxazol-4-yl)-8-[(S)-oxan-4-yl(phenyl)methyl]-3,8,10-triazatricyclo[7.4.0.0^2,^7]trideca-1(13),2(7),3,5,9,11-hexaen-12-yl]propan-2-ol]",< 1500 nM,
